From patent publication US9096559B2, “4-carboxybenzylamino derivatives as histone deacetylase inhibitors” (Merck Sharp & Dohme Corp., priority 2007, dated 2015)
Like-named read-outs stand apart in the source and are kept apart here.

Legend:
[1] = biological target: CYP3A4 (Homo sapiens (Human), UniProt P08684); assay: CYP inhibition potential, CYP3A4; assay type: in vitro ADME
Source text: (§1) The ancillary pharmacology profiles of the SHI-1:2 carbamate analogs were also gathered to investigate off-target activities (Table 12).

[2] = biological target: histone deacetylase, subtype 1 (HDAC1) (Homo sapiens (Human), UniProt Q13547); assay: HDAC1-Flag in vitro deacetylation assay; assay type: biochemical
Sequence of histone deacetylase, subtype 1 (HDAC1) (Q13547 whole entry): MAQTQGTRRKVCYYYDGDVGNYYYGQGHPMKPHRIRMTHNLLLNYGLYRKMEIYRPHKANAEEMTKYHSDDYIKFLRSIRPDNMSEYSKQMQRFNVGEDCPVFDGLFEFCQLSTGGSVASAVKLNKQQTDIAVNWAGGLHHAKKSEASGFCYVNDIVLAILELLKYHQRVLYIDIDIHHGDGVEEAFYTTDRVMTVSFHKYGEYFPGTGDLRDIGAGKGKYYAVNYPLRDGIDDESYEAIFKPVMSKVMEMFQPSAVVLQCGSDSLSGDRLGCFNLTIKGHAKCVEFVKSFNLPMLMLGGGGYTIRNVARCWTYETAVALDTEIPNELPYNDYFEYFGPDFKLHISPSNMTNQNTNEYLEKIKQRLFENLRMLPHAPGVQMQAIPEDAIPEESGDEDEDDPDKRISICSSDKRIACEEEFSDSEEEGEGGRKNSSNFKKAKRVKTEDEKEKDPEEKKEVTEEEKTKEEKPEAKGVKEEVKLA
Method in brief: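 Enzyme: Flag epitope-tagged human HDAC1 complex immunopurified from stably expressing mammalian cells. Substrate carries an acetylated lysine side chain; deacetylation yields a fluorophore proportional to activity, measured as fluorescence.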

[3] = biological target: IKr ion channel (Homo sapiens (Human), UniProt Q12809); assay: Displacement binding assay using radio-labeled MK-499
Sequence of IKr ion channel (Q12809 whole entry): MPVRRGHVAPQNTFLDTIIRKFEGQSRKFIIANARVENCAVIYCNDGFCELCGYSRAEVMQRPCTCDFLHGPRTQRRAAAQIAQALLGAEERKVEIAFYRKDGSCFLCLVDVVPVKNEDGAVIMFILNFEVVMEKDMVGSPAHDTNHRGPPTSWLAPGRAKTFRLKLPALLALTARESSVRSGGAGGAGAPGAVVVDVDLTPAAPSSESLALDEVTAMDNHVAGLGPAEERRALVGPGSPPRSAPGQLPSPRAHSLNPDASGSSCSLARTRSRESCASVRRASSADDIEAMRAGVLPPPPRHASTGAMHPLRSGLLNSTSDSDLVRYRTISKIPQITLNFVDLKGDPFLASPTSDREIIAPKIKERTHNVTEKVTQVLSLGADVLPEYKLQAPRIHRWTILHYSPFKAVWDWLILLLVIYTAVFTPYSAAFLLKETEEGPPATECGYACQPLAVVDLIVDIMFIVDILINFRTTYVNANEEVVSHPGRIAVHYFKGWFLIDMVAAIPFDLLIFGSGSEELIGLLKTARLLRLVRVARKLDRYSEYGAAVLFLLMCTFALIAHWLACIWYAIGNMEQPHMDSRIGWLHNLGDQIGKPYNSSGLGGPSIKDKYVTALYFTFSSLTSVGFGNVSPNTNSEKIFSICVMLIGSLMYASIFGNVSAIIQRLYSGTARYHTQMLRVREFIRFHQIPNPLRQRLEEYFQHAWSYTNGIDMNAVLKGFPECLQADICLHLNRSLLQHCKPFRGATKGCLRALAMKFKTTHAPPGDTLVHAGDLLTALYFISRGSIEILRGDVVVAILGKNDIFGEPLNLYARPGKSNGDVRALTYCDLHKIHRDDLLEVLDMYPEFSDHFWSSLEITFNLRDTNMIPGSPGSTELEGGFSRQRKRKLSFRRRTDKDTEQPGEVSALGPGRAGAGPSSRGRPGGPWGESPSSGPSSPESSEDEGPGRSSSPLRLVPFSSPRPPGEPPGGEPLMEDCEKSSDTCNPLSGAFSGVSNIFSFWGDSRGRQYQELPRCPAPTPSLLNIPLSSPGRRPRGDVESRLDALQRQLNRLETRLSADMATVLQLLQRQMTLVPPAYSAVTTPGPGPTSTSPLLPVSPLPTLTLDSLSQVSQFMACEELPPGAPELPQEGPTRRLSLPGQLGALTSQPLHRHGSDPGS
Source text: as §1

[4] = biological target: CYP2D6 (Homo sapiens (Human), UniProt P10635); assay: CYP inhibition potential, CYP2D6; assay type: in vitro ADME
Sequence of CYP2D6 (P10635 whole entry): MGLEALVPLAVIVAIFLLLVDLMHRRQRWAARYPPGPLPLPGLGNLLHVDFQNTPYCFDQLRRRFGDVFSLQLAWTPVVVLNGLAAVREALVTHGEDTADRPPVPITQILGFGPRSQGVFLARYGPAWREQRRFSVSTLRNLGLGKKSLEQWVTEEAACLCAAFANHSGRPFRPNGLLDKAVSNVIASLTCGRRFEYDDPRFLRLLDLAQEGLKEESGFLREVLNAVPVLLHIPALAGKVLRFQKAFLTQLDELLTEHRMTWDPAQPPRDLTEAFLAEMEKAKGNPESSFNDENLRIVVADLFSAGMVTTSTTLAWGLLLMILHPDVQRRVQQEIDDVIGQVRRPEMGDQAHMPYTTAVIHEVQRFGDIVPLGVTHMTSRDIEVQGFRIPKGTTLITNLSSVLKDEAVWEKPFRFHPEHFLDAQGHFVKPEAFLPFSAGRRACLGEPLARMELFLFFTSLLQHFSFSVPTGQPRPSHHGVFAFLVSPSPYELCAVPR
Source text: as §1

[5] = tested on: HCT-116; assay: HCT-116 anti-proliferation (GI50); assay type: cell-based, human; conditions: means of n ≧ 2 experiments
Experimental: (§2) The novel compounds of the present invention were tested for their ability to inhibit proliferation of the human cervical cancer (HeLa) and colon carcinoma (HCT116) cells.
In this assay, also referred to as the Vialight Assay, cellular ATP levels are measured as a means of quantifying cellular proliferation. This assay makes use of a bioluminescent method from Cambrex (ViaLight PLUS, cat. #LT07-121). In the presence of ATP, luciferase converts luciferin to oxyluciferin and light. The amount of light produced (emission at 565 nm) is measured and correlates with a relative amount of proliferation. Human cervical cancer (HeLa) or colon carcinoma (HCT116) cells were incubated with vehicle or increasing concentrations of compound for 48, 72 or 96 hours. Cell proliferation was quantified by adding the cell lysis reagent (provided in the Vialight assay kit) directly to culture wells, followed by addition of the ATP-monitoring reagent (containing luciferase/luciferin). The amount of light produced is then measured (emission at 565 nm). The quantity of light produced, as measured by […], is directly proportional to the number of living cells in culture. […]

[6] = biological target: CYP2C9 (Homo sapiens (Human), UniProt P11712); assay: CYP inhibition potential, CYP2C9; assay type: in vitro ADME
Sequence of CYP2C9 (P11712 whole entry): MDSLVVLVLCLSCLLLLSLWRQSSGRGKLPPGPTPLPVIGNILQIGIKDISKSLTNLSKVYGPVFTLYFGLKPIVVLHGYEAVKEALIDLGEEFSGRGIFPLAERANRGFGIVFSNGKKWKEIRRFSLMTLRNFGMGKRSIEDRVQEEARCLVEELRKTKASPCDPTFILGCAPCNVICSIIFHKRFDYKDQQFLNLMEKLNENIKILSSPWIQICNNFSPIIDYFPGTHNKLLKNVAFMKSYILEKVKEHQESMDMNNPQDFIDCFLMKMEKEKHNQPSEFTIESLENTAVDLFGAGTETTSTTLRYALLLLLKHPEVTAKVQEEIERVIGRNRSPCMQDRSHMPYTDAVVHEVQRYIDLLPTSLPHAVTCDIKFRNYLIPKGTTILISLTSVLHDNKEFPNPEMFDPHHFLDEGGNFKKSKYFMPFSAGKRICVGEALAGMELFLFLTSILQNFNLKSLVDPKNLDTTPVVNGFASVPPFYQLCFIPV
Source text: as §1

[7] = tested on: human cervical cancer (HeLa) and colon carcinoma (HCT116) cells; assay: ATP (Vialight) cell proliferation assay, 72 hr; assay type: cell-based; conditions: IP = inflection point, cell line not given, read-out: Prol-72 hr IP (inflection point)
Experimental: as §2
In this assay, also referred to as the Vialight Assay, cellular ATP levels are measured as a means of quantifying cellular proliferation. This assay makes use of a bioluminescent method from Cambrex (ViaLight PLUS, cat. #LT07-121). In the presence of ATP, luciferase converts luciferin to oxyluciferin and light. The amount of light produced (emission at 565 nm) is measured and correlates with a relative amount of proliferation. Human cervical cancer (HeLa) or colon carcinoma (HCT116) cells were incubated with vehicle or increasing concentrations of compound for 48, 72 or 96 hours. Cell proliferation was quantified by adding the cell lysis reagent (provided in the Vialight assay kit) directly to culture wells, followed by addition of the ATP-monitoring reagent (containing luciferase/luciferin). The amount of light produced is then measured (emission at 565 nm). The quantity of light produced, as measured by […], is directly proportional to the number of living cells in culture.

[8] = means of n ≧ 2 experiments, read-out: HDAC1 IC50
[9] = IP = inflection point, read-out: HDAC1 IP (inflection point)

Sequence of CYP3A4 (P08684 whole entry): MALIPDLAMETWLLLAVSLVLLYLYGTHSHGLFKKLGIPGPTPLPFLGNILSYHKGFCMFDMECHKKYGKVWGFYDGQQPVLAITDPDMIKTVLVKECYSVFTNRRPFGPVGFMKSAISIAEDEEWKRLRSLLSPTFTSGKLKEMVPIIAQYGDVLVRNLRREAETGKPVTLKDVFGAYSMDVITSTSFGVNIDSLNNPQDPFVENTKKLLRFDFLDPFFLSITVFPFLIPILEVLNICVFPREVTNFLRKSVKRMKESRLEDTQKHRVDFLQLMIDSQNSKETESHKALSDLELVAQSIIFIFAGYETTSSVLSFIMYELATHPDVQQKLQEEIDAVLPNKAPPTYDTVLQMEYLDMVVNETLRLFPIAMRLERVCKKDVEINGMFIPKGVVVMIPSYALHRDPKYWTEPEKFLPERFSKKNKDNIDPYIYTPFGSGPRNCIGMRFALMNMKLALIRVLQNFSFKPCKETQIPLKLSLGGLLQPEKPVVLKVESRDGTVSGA

Row | SMILES | % CYP Inhibition @ 10 μM 3A4 [1] [%] | IC50 [2, 8] [nM] | % CYP Inhibition @ 10 μM 2D6 [4] [%] | GI50 [5] [nM] | % CYP Inhibition @ 10 μM 2C9 [6] [%] | IC50 [2, 9] [nM] | IC50 [7] [nM] | % MK-499 Binding Inhibition @ 10 μM [3] [%] | IC50 [3] [nM]
1 | Nc1ccc(-c2cccs2)cc1NC(=O)c1ccc(CNC(=O)c2ccccc2)cc1 [Example 48, N-[2-amino-5-(2-thienyl)phenyl]-4-{[(phenylcarbonyl)amino]methyl}benzamide] |  |  |  |  |  | 13 | 110 |  | 
2 | CC(C)CNCc1ccc(C(=O)Nc2cc(-c3ccccc3)ccc2N)cc1 [Example 65, N-(4-amino-3-biphenylyl)-4-[(isobutylamino)methyl]benzamide] |  |  |  |  |  | 35 | 900 |  | 
3 | CC(C)COC(=O)NCc1ccc(C(=O)Nc2cc(-c3ccccc3)ccc2N)cc1 [Example 13, 2-methylpropyl[(4-{[(4-aminobiphenyl-3-yl)amino]carbonyl}phenyl)methyl]carbamate] |  |  |  |  |  | 45 | 390 |  | 
4 | Nc1ccc(-c2ccccc2)cc1NC(=O)c1ccc(CN2C(=O)OC[C@H]2c2ccccc2)cc1 [Example 122, N-(4-aminobiphenyl-3-yl)-4-{[(4R)-2-oxo-4-phenyl-1,3-oxazolidin-3-yl]methyl}benzamide] |  |  |  |  |  | 58 | 1100 |  | 
5 | CC(C)(C)C(=O)NCc1ccc(C(=O)Nc2cc(-c3cccs3)ccc2N)cc1 [Example 41, N-[2-amino-5-(2-thienyl)phenyl]-4-{[(2,2-dimethylpropanoyl)amino]methyl}benzamide] |  |  |  |  |  | 16 | 170 |  | 
6 | Nc1ccc(-c2cccs2)cc1NC(=O)c1ccc(CNC(=O)C2CCCC2)cc1 [Example 46, N-[2-amino-5-(2-thienyl)phenyl]-4-{[(cyclopentylcarbonyl)amino]methyl}benzamide] |  |  |  |  |  | 20 | 140 |  | 
7 | Nc1ccc(-c2cccs2)cc1NC(=O)c1ccc(CNC(=O)Cc2cccnc2)cc1 [Example 49, N-[2-amino-5-(2-thienyl)phenyl]-4-{[(pyridin-3-ylacetyl)amino]methyl}benzamide] |  |  |  |  |  | 10 | 170 |  | 
8 | Nc1ccc(-c2ccccc2)cc1NC(=O)c1ccc(CNC(=O)C2CCC2)cc1 [Example 30, N-(4-aminobiphenyl-3-yl)-4-{[(cyclobutylcarbonyl)amino]methyl}benzamide] |  |  |  |  |  | 23 | 220 |  | 
9 | CCCC(=O)NCc1ccc(C(=O)Nc2cc(-c3cccs3)ccc2N)cc1 [Example 38, N-[2-amino-5-(2-thienyl)phenyl]-4-[(butanoylamino)methyl]benzamide] |  |  |  |  |  | 12 | 150 |  | 
10 | Nc1ccc(-c2ccccc2)cc1NC(=O)c1ccc(CN2C(=O)OC[C@H]2Cc2ccccc2)cc1 [Example 119, N-(4-aminobiphenyl-3-yl)-4-{[(4R)-2-oxo-4-(phenylmethyl)-1,3-oxazolidin-3-yl]methyl}benzamide] |  |  |  |  |  | 89 | 1700 |  | 
11 | Nc1ccc(-c2ccccc2)cc1NC(=O)c1ccc(CNC(=O)[C@@H]2CCCN2)cc1 [Example 58, (2S)-N-(4-{[(4-aminobiphenyl-3-yl)amino]carbonyl}benzyl)pyrrolidine-2-carboxamide] |  |  |  |  |  | 24 | 380 |  | 
12 | Nc1ccc(-c2ccsc2)cc1NC(=O)c1ccc(CNCC(=O)O)cc1 [Example 125, {[4-({[2-amino-5-(3-thienyl)phenyl]amino}carbonyl)benzyl]amino}acetic acid] |  |  |  |  |  | 42 | > 20000 |  | 

More lines, main results first:

Row | % CYP Inhibition @ 10 μM 3A4 [1] [%] | IC50 [2, 8] [nM] | % CYP Inhibition @ 10 μM 2D6 [4] [%] | GI50 [5] [nM] | % CYP Inhibition @ 10 μM 2C9 [6] [%] | IC50 [2, 9] [nM] | IC50 [7] [nM] | SMILES | % MK-499 Binding Inhibition @ 10 μM [3] [%] | IC50 [3] [nM]
13 | 38 | 8 | 29 | 435 | 67 |  |  | Nc1ccc(-c2ccccc2)cc1NC(=O)c1ccc(CNC(=O)OCc2ccccn2)cc1 [Example 14b] | 51 | 
14 | 33 | 10 | 28 | 220 | 27 |  |  | CCCC(=O)NCc1ccc(C(=O)Nc2cc(-c3ccccc3)ccc2N)cc1 [Example 14g] | 38 | 
15 | 23 |  | 49 | 230 | 46 |  |  | COC(=O)NCc1ccc(C(=O)Nc2cc(-c3ccccc3)ccc2N)cc1 [Example 14f] | 28 | 
16 | 30 | 10 | 38 | 150 | 28 |  |  | CCC(=O)NCc1ccc(C(=O)Nc2cc(-c3ccccc3)ccc2N)cc1 [Example 14h] | 24 | 
17 |  |  |  | 225 |  |  |  | Nc1ccc(-c2ccccc2)cc1NC(=O)c1ccc(CNC(=O)OCc2cccnc2)cc1 [Example 2a] |  | 
18 | 22 | 13 | 26 | 230 | 35 |  |  | CCOC(=O)NCc1ccc(C(=O)Nc2cc(-c3ccccc3)ccc2N)cc1 [Example 14e] | 40 | 
19 | 12 | 20 | 17 | 335 | 32 |  |  | Nc1ccc(-c2ccccc2)cc1NC(=O)c1ccc(CNC(=O)C2CCCCC2)cc1 [Example 14i] | 30 | 
20 | 65 | 11 | 25 | 337 | 73 |  |  | Nc1ccc(-c2ccccc2)cc1NC(=O)c1ccc(CNC(=O)CCc2cccnc2)cc1 [Example 14a] |  | 3700
